Reference: patent publication US5081148A, “Blocking agents of EDRF effect or formation for the treatment of shock” (Societe de Conseils de Recherches et d'Applications …, priority 1989, dated 1992)

Legend:
[1] = test system: EDRF; experiment: Restoration of depressed response to catecholamines / inhibition of vascular hyporeactivity (general statement)
[2] = Blood pressure in pithed rats perfused with endotoxin; assay type: in vivo, Male Sprague Dawley rats; settings: endotoxin 300 μg/kg/h, 60 min
Description: Male Sprague Dawley rats (280-320 g) were pithed and perfused continuously with endotoxin (EDTX, Escherichia Coli lipopolysaccharide OIII: B4; 300 μg/kg/h) for 60 min. […] A 60 min perfusion of endotoxin lipopolysaccharide (300 μg/kg/h) to pithed rats led to hypotension and impaired the vascular reactivity to pressor agents as observed in septic and endotoxinic shock in human. […] Their effects on blood pressure are however less marked. Association of blockers of cyclooxygenase (aspirin, indomethacin for instance . . . ) and blockers of EDRF results on a highly significative synergistic protective effect in both vascular hyperactivity and decrease of blood pressure induced by shock.

[3] = test system: vascular reactivity (methoxamine); experiment: Vascular reactivity to methoxamine in pithed rats perfused with endotoxin (EDTX); assay type: in vivo, Male Sprague Dawley rats; settings: for inhibition of vascular hyporeactivity: pithed rats, endotoxin 300 μg/kg/h, 60 min
Description: Male Sprague Dawley rats (280-320 g) were pithed and perfused continuously with endotoxin (EDTX, Escherichia Coli lipopolysaccharide OIII: B4; 300 μg/kg/h) for 60 min.

[4] = test system: thoracic aorta rings; experiment: Contractile responses of thoracic aorta rings from endotoxin-treated rats (PE-induced contraction, loss of tonicity), organ bath; design: species or system Sprague Dawley rats; settings: rings from endotoxin-treated animals; compounds of the invention at 10, 30 or 100 μM, with or without endothelium
Description: Sprague Dawley rats (220-330 g) received a 10 mg/kg ip injection of Escherichia Coli endotoxin (0114B4 Sigma). After 3 hours, rats were sacrificed by cervical dislocation and the thoracic aorta removed and cleaned of the surrounding tissue. Rings 2 mm wide were suspended under a tension of 2 g at 37° C. in organ bath containing 10 ml of Krebs Henseleit physiological solution and gassed with 95% O2 /5% CO2. Contractile responses were measured using force displacement transducers (Auguet M., Delaflotte S., P. E. Chabrier, P. Braquet Comparative effects of endotelin and phorbol 12-13 dibutyrate in rat aorta. Life Sci. 45, 21, 2051-2059, 1989).
In some experiments, the endothelium was gently disrupted (-E). Phenylephrine (PE) induced contraction was stable over the time in control rings of animals receiving saline solution (0.9% NaCl) with (E+) or without (E-) endothelium. The arginine derivative (10, 30 or 100 μM) had no significant effect per se.
This phenomenon was accentuated with intact endothelium (E+).
In some experiments, the compounds of the invention were introduced in the bath 105 minutes after PE when the tissue had completely its tonicity. Under these conditions, the compounds of the invention, alone, were able to curatively and totally restore the contraction and therefore contribute extensively to vascular hyporesponsiveness to vasoconstrictor agents in shock. […]

SMILES | effects on blood pressure [2] | inhibition of vascular hyporeactivity [3] | restoration of depressed response to catecholamines and inhibition of vascular hyporeactivity [1] | other results
CNC(=N)NCCC[C@@H](N)C(=O)O [(D) N-methyl arginine, reference compound] |  |  |  | activity in the field of the present invention [1]: deprived of any activity
COC(=O)[C@@H](N)CCCNC(=N)N[N+](=O)[O-] [L-NAME, L-nitroarginine methyl ester] | less marked | inhibited in a dose dependent manner | able to restore depressed response to catecholamines and to effectively inhibit vascular hyporeactivity | 
CC(=N)NCCC[C@H](N)C(=O)O [L-NIO, L-iminoethylornithine] | less marked | inhibited in a dose dependent manner | able to restore depressed response to catecholamines and to effectively inhibit vascular hyporeactivity | 
CNC(=N)NCCC[C@H](N)C(=O)O [L-NMMA, L-N-monomethyl arginine] | less marked | inhibited in a dose dependent manner | able to restore depressed response to catecholamines and to effectively inhibit vascular hyporeactivity | 
N=C(N)NCCC[C@H](N)C(=O)O [L-arginine] |  |  |  | effect on loss of tonicity in endotoxin treated preparation [4]: enhanced the loss of tonicity
COc1ccc(OC)c(C(O)C(C)N)c1 (stereo not drawn) [methoxamine, reference compound] |  |  |  | ED50 ([3]; Rattus norvegicus, control rats, cumulative dose-response): 0.079 ± 0.009 mg/kg
